In patent publication US6156541A (priority 1998, dated 2000):
Where a SMILES comes first, the peptide text is derived from it. [ ]: non-standard residue; d: D form. The star is where a group is joined. Sta = CC(C)C[C@H](N)[C@@H](O)CC(=O)O; Isovaleryl = CC(C)CC(=O)*

test system: Lay2 L chain, human monoclonal antibody light chain (Bence Jones protein, kappa IIc subgroup) from a multiple myeloma patient; assay type: biochemical

| SMILES | Effect on Lay2-catalyzed gp120 hydrolysis |
| --- | --- |
| O=C(O)CN(CCN(CC(=O)O)CC(=O)O)CC(=O)O [EDTA] | without effect |
| NC(=O)CI [iodoacetamide] | without effect |
| CC(C)CC(=O)N[C@H](C(=O)N[C@H](C(=O)N[C@@H](CC(C)C)[C@@H](O)CC(=O)N[C@@H](C)C(=O)N[C@@H](CC(C)C)[C@@H](O)CC(=O)O)C(C)C)C(C)C [Pepstatin A] (Isovaleryl-VV[Sta]A[Sta]-OH) | without effect |
